In patent US20210238225A1, “PEPTIDOMIMETIC INHIBITORS OF THE PEPTIDYL-PROLYL CIS/TRANS ISOMERASE (PIN1)” (DANA-FARBER CANCER INSTITUTE, INC., priority 2018, published 2021):
Non-standard residues stand in square brackets, D forms with d. Residues, ends and D or L forms follow the SMILES beside them. *: point of attachment. Phe(4-F) = N[C@@H](Cc1ccc(F)cc1)C(=O)O; 2Nal = N[C@@H](Cc1ccc2ccccc2c1)C(=O)O; Met(O2) = CS(=O)(=O)CC[C@H](N)C(=O)O; X2 = C[C@H]1NC(=O)N[C@H]1CCCCCC(=O)*; NH(4-Me-benzyl) = Cc1ccc(CN*)cc1; β3hF = N[C@H](CC(=O)O)Cc1ccccc1; Cit = NC(=O)NCCC[C@H](N)C(=O)O; X7 = c1ccc(-c2ccc(N*)cc2)cc1; Pip = O=C(O)[C@@H]1CCCCN1; βNA = c1ccc2cc(N*)ccc2c1; Fluoroacetyl = O=C(CF)*; X5 = Cc1ccc(CN(C)*)cc1; Acryloyl = C=CC(=O)*; X4 = CN(c1ccccc1)*; ClAc = O=C(CCl)*; X1 = O=C(C1CO1)*

Target: Pin1 (GST-Pin1) (Homo sapiens, UniProt Q13526)
Sequence (Q13526 whole entry): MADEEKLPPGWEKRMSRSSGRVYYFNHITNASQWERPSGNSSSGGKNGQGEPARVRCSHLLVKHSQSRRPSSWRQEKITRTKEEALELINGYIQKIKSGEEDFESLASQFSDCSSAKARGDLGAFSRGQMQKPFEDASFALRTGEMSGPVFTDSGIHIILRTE
Test: Fluorescence polarization (FP) assay, binding to Pin1
Settings: Ki, μM (FP Assay), competition with fluorescein-labeled peptide probe; 12 hours pre-incubation at 4° C.; Kenakin Ki equation

**Q.** For `C[C@H]1NC(=O)N[C@H]1CCCCCC(=O)NCCCC[C@H](NC(=O)[C@H](CCCNC(N)=O)NC(=O)[C@H](Cc1c[nH]c2ccccc12)NC(=O)[C@@H]1CCCCN1C(=O)[C@H](CCC(=O)O)NC(=O)CCl)C(N)=O` [Compound 2c-2, (S)-5-((S)-2-(((S)-1-(((S)-1-(((S)-1-Amino-6-(6-((4S,5R)-5-methyl-2-oxoimidazolidin-4-yl)hexanamido)-1-oxohexan-2-yl)amino)-1-oxo-5-ureidopentan-2-yl)amino)-3-(1H-indol-3-yl)-1-oxopropan-2-yl)carbamoyl)piperidin-1-yl)-4-(2-chloroacetamido)-5-oxopentanoic acid] (ClAc-E[Pip]W[Cit]K(X2)-NH2), which Ki is on record?
**A.** 0.03 µM

**Q.** `NC(=O)NCCC[C@H](NC(=O)[C@H](Cc1c[nH]c2ccccc12)NC(=O)[C@@H]1CCCCN1C(=O)[C@H](CCC(=O)O)NC(=O)CF)C(N)=O` [Compound 6b, (S)-5-((S)-2-(((S)-1-(((S)-1-Amino-1-oxo-5-ureidopentan-2-yl)amino)-3-(1H-indol-3-yl)-1-oxopropan-2-yl)carbamoyl)piperidin-1-yl)-4-(2-fluoroacetamido)-5-oxopentanoic acid] (Fluoroacetyl-E[Pip]W[Cit]-NH2) was tested. Which Ki did it give?
**A.** > 10 µM

**Q.** For `N=C(N)NCCC[C@H](NC(=O)[C@H](Cc1ccc2ccccc2c1)NC(=O)[C@@H]1CCCCN1C(=O)[C@H](CCC(=O)O)NC(=O)CF)C(N)=O` [Compound 6b-1, (S)-5-((S)-2-(((S)-1-(((S)-1-Amino-5-guanidino-1-oxopentan-2-yl)amino)-3-(naphthalen-2-yl)-1-oxopropan-2-yl)carbamoyl)piperidin-1-yl)-4-(2-fluoroacetamido)-5-oxopentanoic acid] (Fluoroacetyl-E[Pip][2Nal]R-NH2), which Ki is on record?
**A.** > 10 µM

**Q.** `COC(=O)CC[C@H](NC(=O)CCl)C(=O)N1CCCC[C@H]1C(=O)N[C@@H](Cc1c[nH]c2ccccc12)C(=O)N[C@@H](CCCNC(N)=O)C(=O)Nc1ccc2ccccc2c1` [Compound 11-8, Methyl (S)-5-((S)-2-(((S)-3-(1H-indol-3-yl)-1-(((S)-1-(naphthalen-2-ylamino)-1-oxo-5-ureidopentan-2-yl)amino)-1-oxopropan-2-yl)carbamoyl)piperidin-1-yl)-4-(2-chloroacetamido)-5-oxopentanoate] (ClAc-E(OMe)[Pip]W[Cit]-βNA) was tested. Which Ki did it give?
**A.** 0.15 µM

**Q.** With `COC(=O)CC[C@H](NC(=O)CCl)C(=O)N1CCCC[C@H]1C(=O)N[C@@H](Cc1c[nH]c2ccccc12)C(=O)N[C@@H](CCCNC(N)=O)C(=O)N(C)c1ccccc1` [Compound 11-15, Methyl (S)-5-((S)-2-(((S)-3-(1H-indol-3-yl)-1-(((S)-1-(methyl(phenyl)amino)-1-oxo-5-ureidopentan-2-yl)amino)-1-oxopropan-2-yl)carbamoyl)piperidin-1-yl)-4-(2-chloroacetamido)-5-oxopentanoate] (ClAc-E(OMe)[Pip]W[Cit]-X4) as the compound, how does the Ki read?
**A.** 0.15 µM

**Q.** Which Ki does the source give for `COC(=O)CC[C@@H](NC(=O)CCl)C(=O)N1CCCC[C@H]1C(=O)N[C@@H](Cc1c[nH]c2ccccc12)C(=O)N[C@@H](Cc1ccc(F)cc1)C(=O)NCc1ccc(C)cc1` [Compound 11-16, Methyl (R)-4-(2-chloroacetamido)-5-((S)-2-(((S)-1-(((S)-3-(4-fluorophenyl)-1-((4-methyl-benzyl)amino)-1-oxopropan-2-yl)amino)-3-(1H-indol-3-yl)-1-oxopropan-2-yl)carbamoyl)-piperidin-1-yl)-5-oxopentanoate] (ClAc-[dE](OMe)[Pip]W[Phe(4-F)]-{NH(4-Me-benzyl)}) here?
**A.** > 10 µM

**Q.** For `COC(=O)CC[C@H](NC(=O)CCl)C(=O)N1CCCC[C@H]1C(=O)N[C@@H](Cc1c[nH]c2ccccc12)C(=O)N[C@@H](CCCNC(N)=O)C(=O)Nc1ccc(-c2ccccc2)cc1` [Compound 11-17, Methyl (S)-5-((S)-2-(((S)-1-(((S)-1-([1,1′-biphenyl]-4-ylamino)-1-oxo-5-ureidopentan-2-yl)amino)-3-(1H-indol-3-yl)-1-oxopropan-2-yl)carbamoyl)piperidin-1-yl)-4-(2-chloroacetamido)-5-oxopentanoate] (ClAc-E(OMe)[Pip]W[Cit]-X7), which Ki is on record?
**A.** > 10 µM

**Q.** `COC(=O)CC[C@H](NC(=O)CCl)C(=O)N1CCCC[C@H]1C(=O)N[C@@H](Cc1c[nH]c2ccccc12)C(=O)N[C@@H](Cc1ccc(F)cc1)C(=O)N(C)c1ccccc1` [Compound 11-20, Methyl (S)-4-(2-chloroacetamido)-5-((S)-2-(((S)-1-(((S)-3-(4-fluorophenyl)-1-(methyl-(phenyl)amino)-1-oxopropan-2-yl)amino)-3-(1H-indol-3-yl)-1-oxopropan-2-yl)carbamoyl)-piperidin-1-yl)-5-oxopentanoate] (ClAc-E(OMe)[Pip]W[Phe(4-F)]-X4) was tested. Which Ki did it give?
**A.** 0.223 µM

Same assay, conditions: competition with fluorescein-labeled peptide probe; 12 hours pre-incubation at 4° C.; Kenakin Ki equation; read-out: Ki, μM (FP Assay)

**Q.** Which Ki does the source give for `N=C(N)NCCC[C@H](NC(=O)C[C@H](Cc1ccccc1)NC(=O)[C@@H]1CCCCN1C(=O)[C@H](CCC(=O)O)NC(=O)CCl)C(N)=O` [Compound 2b-15, (S)-5-((S)-2-(((S)-4-(((S)-1-Amino-5-guanidino-1-oxopentan-2-yl)amino)-4-oxo-1-phenylbutan-2-yl)carbamoyl)piperidin-1-yl)-4-(2-chloroacetamido)-5-oxopentanoic acid] (ClAc-E[Pip][β3hF]R-NH2) here?
**A.** > 10 µM

**Q.** With `C=CC(=O)N[C@@H](CCC(=O)O)C(=O)N1CCCC[C@H]1C(=O)N[C@@H](Cc1ccc2ccccc2c1)C(=O)N[C@@H](CCCNC(=N)N)C(N)=O` [Compound 2b-16, (S)-4-Acrylamido-5-((S)-2-(((S)-1-(((S)-1-amino-5-guanidino-1-oxopentan-2-yl)amino)-3-(naphthalen-2-yl)-1-oxopropan-2-yl)carbamoyl)piperidin-1-yl)-5-oxopentanoic acid] (Acryloyl-E[Pip][2Nal]R-NH2) as the compound, how does the Ki read?
**A.** > 10 µM

**Q.** For `C[C@H](NC(=O)[C@H](C)NC(=O)[C@H](CCCNC(N)=O)NC(=O)[C@H](Cc1c[nH]c2ccccc12)NC(=O)[C@@H]1CCCCN1C(=O)[C@H](CCC(=O)O)NC(=O)CCl)C(=O)N[C@@H](CCCCNC(=O)CCCCC[C@@H]1NC(=O)N[C@@H]1C)C(N)=O` [Compound 2c-1, (S)-5-((S)-2-(((2S,5S,8S,11S)-14-Carbamoyl-1-(1H-indol-3-yl)-8,11-dimethyl-25-((4S,5R)-5-methyl-2-oxoimidazolidin-4-yl)-3,6,9,12,20-pentaoxo-5-(3-ureidopropyl)-4,7,10,13,19-pentaazapentacosan-2-yl)carbamoyl)piperidin-1-yl)-4-(2-chloroacetamido)-5-oxopentanoic acid] (ClAc-E[Pip]W[Cit]AAK(X2)-NH2), which Ki is on record?
**A.** 0.04 µM

**Q.** With `COC(=O)CC[C@H](NC(=O)C1CO1)C(=O)N1CCCC[C@H]1C(=O)N[C@@H](Cc1c[nH]c2ccccc12)C(=O)N[C@@H](CCCNC(N)=O)C(N)=O` (stereo partly drawn) [Compound 3, Methyl (4S)-5-((S)-2-(((S)-1-(((S)-1-amino-1-oxo-5-ureidopentan-2-yl)amino)-3-(1H-indol-3-yl)-1-oxopropan-2-yl)carbamoyl)piperidin-1-yl)-4-(oxirane-2-carboxamido)-5-oxopentanoate] (X1-E(OMe)[Pip]W[Cit]-NH2) as the compound, how does the Ki read?
**A.** 4.17 µM

**Q.** With `NC(=O)NCCC[C@H](NC(=O)[C@H](Cc1ccc2ccccc2c1)NC(=O)[C@@H]1CCCCN1C(=O)[C@H](CCC(=O)O)N1C(=O)C=CC1=O)C(N)=O` [Compound 5, (S)-5-((S)-2-(((S)-1-(((S)-1-Amino-1-oxo-5-ureidopentan-2-yl)amino)-3-(naphthalen-2-yl)-1-oxopropan-2-yl)carbamoyl)piperidin-1-yl)-4-(2,5-dioxo-2,5-dihydro-1H-pyrrol-1-yl)-5-oxopentanoic acid] as the compound, how does the Ki read?
**A.** > 10 µM

**Q.** With `NC(=O)NCCC[C@H](NC(=O)[C@H](Cc1ccc2ccccc2c1)NC(=O)[C@@H]1CCCCN1C(=O)C[C@H](CCC(=O)O)N1C(=O)C=CC1=O)C(N)=O` [Compound 5-1, (S)-6-((S)-2-(((S)-1-(((S)-1-Amino-1-oxo-5-ureidopentan-2-yl)amino)-3-(naphthalen-2-yl)-1-oxopropan-2-yl)carbamoyl)piperidin-1-yl)-4-(2,5-dioxo-2,5-dihydro-1H-pyrrol-1-yl)-6-oxohexanoic acid] as the compound, how does the Ki read?
**A.** 0.61 µM

**Q.** `Cc1ccc(CN(C)C(=O)[C@H](CCCNC(N)=O)NC(=O)[C@H](Cc2c[nH]c3ccccc23)NC(=O)[C@@H]2CCCCN2C(=O)[C@H](CCC(=O)O)NC(=O)CCl)cc1` [Compound 11-9, (S)-5-((S)-2-(((S)-3-(1H-Indol-3-yl)-1-(((S)-1-(methyl(4-methylbenzyl)amino)-1-oxo-5-ureidopentan-2-yl)amino)-1-oxopropan-2-yl)carbamoyl)piperidin-1-yl)-4-(2-chloroacetamido)-5-oxopentanoic acid] (ClAc-E[Pip]W[Cit]-X5) was tested. Which Ki did it give?
**A.** 0.31 µM

**Q.** `NC(=O)NCCC[C@H](NC(=O)[C@H](Cc1c[nH]c2ccccc12)NC(=O)[C@@H]1CCCCN1C(=O)[C@H](CCC(=O)O)NC(=O)CCl)C(=O)Nc1ccc2ccccc2c1` [Compound 11-10, (S)-5-((S)-2-(((S)-3-(1H-Indol-3-yl)-1-(((S)-1-(naphthalen-2-ylamino)-1-oxo-5-ureidopentan-2-yl)amino)-1-oxopropan-2-yl)carbamoyl)piperidin-1-yl)-4-(2-chloroacetamido)-5-oxopentanoic acid] (ClAc-E[Pip]W[Cit]-βNA) was tested. Which Ki did it give?
**A.** 0.11 µM

**Q.** With `Cc1ccc(CNC(=O)[C@H](CCCNC(N)=O)NC(=O)[C@H](Cc2c[nH]c3ccccc23)NC(=O)[C@@H]2CCCCN2C(=O)[C@H](CCS(C)(=O)=O)NC(=O)CCl)cc1` [Compound 11-11, (S)—N—((S)-3-(1H-Indol-3-yl)-1-(((S)-1-((4-methylbenzyl)amino)-1-oxo-5-ureidopentan-2-yl)amino)-1-oxopropan-2-yl)-1-((S)-2-(2-chloroacetamido)-4-(methylsulfonyl)butanoyl)piperidine-2-carboxamide] (ClAc-[Met(O2)][Pip]W[Cit]-{NH(4-Me-benzyl)}) as the compound, how does the Ki read?
**A.** 0.17 µM

**Q.** `COC(=O)CC[C@H](NC(=O)C1CO1)C(=O)N1CCCC[C@H]1C(=O)N[C@@H](Cc1c[nH]c2ccccc12)C(=O)N[C@@H](CCCNC(N)=O)C(=O)NCc1ccc(C)cc1` (stereo partly drawn) [Compound 11-12, Methyl (4S)-5-((S)-2-(((S)-3-(1H-indol-3-yl)-1-(((S)-1-((4-methylbenzyl)amino)-1-oxo-5-ureido-pentan-2-yl)amino)-1-oxopropan-2-yl)carbamoyl)piperidin-1-yl)-4-(oxirane-2-carboxamido)-5-oxopentanoate] (X1-E(OMe)[Pip]W[Cit]-{NH(4-Me-benzyl)}) was tested. Which Ki did it give?
**A.** > 10 µM
